Literature values as cited in patent publication US7704745B2 (priority 2001, dated 2010).

System: human hepatocyte and neuroblastoma cells
Conditions: cited from earlier work

Compound | effect on hepatocyte and neuroblastoma cell metabolism
CCOP(=S)(OCC)Oc1ccc([N+](=O)[O-])cc1 [parathion] | opposite effects
CCOP(=O)(OCC)Oc1ccc([N+](=O)[O-])cc1 [paraoxon] | opposite effects
